# According to the NIST ThermoML archive (doi:10.1016/j.jct.2017.06.002):
# Numbers after ± are expanded uncertainties.
# Experiments:
# [1] = 100 kPa, Liquid; for viscosity: Concentric cylinders viscometry
# [2] = xn = mol fraction of the nth substance listed; conditions: 100 kPa, Liquid, x1 = 1; for viscosity: Concentric cylinders viscometry; for mass density: Vibrating tube method
# [3] = 288.15 K, Vibrating tube method
# [4] = 293.15 K, Vibrating tube method
# [5] = 298.15 K, Buoyancy - hydrostatic balance
# [6] = 298.15 K, Vibrating tube method
# [7] = 303.15 K, Vibrating tube method
# [8] = 308.15 K, Vibrating tube method
# [9] = 313.15 K, Vibrating tube method
Compound,viscosity ([1]; 288.15 K) [mPa·s],"mass density [1, 3] [kg/m3]",viscosity ([1]; 293.15 K) [mPa·s],"mass density [1, 4] [kg/m3]","mass density [1, 5] [kg/m3]",viscosity ([1]; 298.15 K) [mPa·s],"mass density [1, 6] [kg/m3]",viscosity ([1]; 303.15 K) [mPa·s],"mass density [1, 7] [kg/m3]",viscosity ([1]; 308.15 K) [mPa·s],"mass density [1, 8] [kg/m3]",viscosity ([1]; 313.15 K) [mPa·s],"mass density [1, 9] [kg/m3]",viscosity ([2]; 288.15 K) [mPa·s],mass density ([2]; 288.15 K) [kg/m3],viscosity ([2]; 293.15 K) [mPa·s],mass density ([2]; 293.15 K) [kg/m3],viscosity ([2]; 298.15 K) [mPa·s],mass density ([2]; 298.15 K) [kg/m3],viscosity ([2]; 303.15 K) [mPa·s],other results
"COCOCOCOCOC [2,4,6,8,10-pentaoxaundecane]",2.207 ± 0.051,1078.8 ± 2,2.015 ± 0.051,1073.3 ± 2,1067.8 ± 2,1.848 ± 0.051,1068.2 ± 2,1.703 ± 0.051,1063.4 ± 2,1.576 ± 0.051,1059.1 ± 2,1.464 ± 0.051,1055.2 ± 2,,,,,,,,
"COCOCOC [2,4,6-trioxaheptane] + COCOCOCOC",,,,,,,,,,,,,,0.9255 ± 0.05,999.4 ± 2,0.9152 ± 0.05,995.3 ± 2,0.9028 ± 0.05,989.9 ± 2,0.8885 ± 0.05,mass density ([2]; 303.15 K): 984.3 ± 2 kg/m3; viscosity ([2]; 308.15 K): 0.8726 ± 0.05 mPa·s; mass density ([2]; 308.15 K): 978.8 ± 2 kg/m3; viscosity ([2]; 313.15 K): 0.8554 ± 0.05 mPa·s; mass density ([2]; 313.15 K): 974.2 ± 2 kg/m3
"COCOCOCOC [2,4,6,8-tetraoxanonane] + COCOCOCOCOC",,,,,,,,,,,,,,1.259 ± 0.051,1037.5 ± 2,1.166 ± 0.051,1030.2 ± 2,1.084 ± 0.051,1023.4 ± 2,1.028 ± 0.051,mass density ([2]; 303.15 K): 1016.6 ± 2 kg/m3; viscosity ([2]; 308.15 K): 0.9921 ± 0.051 mPa·s; mass density ([2]; 308.15 K): 1011 ± 2 kg/m3; viscosity ([2]; 313.15 K): 0.9521 ± 0.05 mPa·s; mass density ([2]; 313.15 K): 1005 ± 2 kg/m3
"COCOCOC [2,4,6-trioxaheptane] + COCOCOCOCOC",,,,,,,,,,,,,,0.9255 ± 0.05,999.4 ± 2,0.9152 ± 0.05,995.3 ± 2,0.9028 ± 0.05,989.9 ± 2,0.8885 ± 0.05,mass density ([2]; 303.15 K): 984.3 ± 2 kg/m3; viscosity ([2]; 308.15 K): 0.8726 ± 0.05 mPa·s; mass density ([2]; 308.15 K): 978.8 ± 2 kg/m3; viscosity ([2]; 313.15 K): 0.8554 ± 0.05 mPa·s; mass density ([2]; 313.15 K): 974.2 ± 2 kg/m3
"COCOCOCOC [2,4,6,8-tetraoxanonane]",1.259 ± 0.051,1037.5 ± 2,1.166 ± 0.051,1030.2 ± 2,1023.1 ± 2,1.084 ± 0.051,1023.4 ± 2,1.028 ± 0.051,1016.6 ± 2,0.9921 ± 0.051,1011 ± 2,0.9521 ± 0.05,1005 ± 2,,,,,,,,
"COCOCOC [2,4,6-trioxaheptane]",0.9255 ± 0.05,999.4 ± 2,0.9152 ± 0.05,995.3 ± 2,989.2 ± 2,0.9028 ± 0.05,989.9 ± 2,0.8885 ± 0.05,984.3 ± 2,0.8726 ± 0.05,978.8 ± 2,0.8554 ± 0.05,974.2 ± 2,,,,,,,,
